Results from PubChem BioAssay AID248 (DTP/NCI, 2004).
Values joined by “and” are separate entries in the source; they are usually repeats but may differ in a detail not shown here. Identical values can stand only once. Toxic doses and inconclusive results are not listed. No stated cut-off is given here; in the data, active means T/C of 150% or more; inactive means T/C below 125%.

Test system: L1210 leukemia ip in BDF1 mice, survival T/C
Experiment: NCI In Vivo Anticancer Drug Screen. Data for tumor model L1210 Leukemia (intraperitoneal) in B6D2F1 (BDF1) mice
Conditions: endpoint: mean survival time, higher = longer survival
In short: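 In this screen, tumor-bearing mice given compound are compared to those given vehicle, and their survival values are reported as a treated-to-control quotient.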

[1] = dose: 100.0 mg/kg/injection, schedule: Q01DX009 (ip), vehicle: Klucel (hydroxypropylcellulose) (HPC)
[2] = dose: 100.0 mg/kg/injection, schedule: Q04DX003 (ip), vehicle: saline
[3] = dose: 200.0 mg/kg/injection, schedule: Q01DX009 (ip), vehicle: Klucel (hydroxypropylcellulose) (HPC)
[4] = dose: 200.0 mg/kg/injection, schedule: Q04DX003 (ip), vehicle: saline
[5] = dose: 400.0 mg/kg/injection, schedule: Q01DX009 (ip), vehicle: Klucel (hydroxypropylcellulose) (HPC)
[6] = dose: 400.0 mg/kg/injection, schedule: Q04DX003 (ip), vehicle: saline
[7] = dose: 100.0 mg/kg/injection, schedule: Q04DX003 (ip), vehicle: Klucel (hydroxypropylcellulose) (HPC)
[8] = dose: 200.0 mg/kg/injection, schedule: Q04DX003 (ip), vehicle: Klucel (hydroxypropylcellulose) (HPC)
[9] = dose: 400.0 mg/kg/injection, schedule: Q04DX003 (ip), vehicle: Klucel (hydroxypropylcellulose) (HPC)
[10] = dose: 50.0 mg/kg/injection, schedule: Q01DX001 (ip), vehicle: saline
[11] = dose: 100.0 mg/kg/injection, schedule: Q01DX001 (ip), vehicle: saline
[12] = dose: 200.0 mg/kg/injection, schedule: Q01DX001 (ip), vehicle: saline
[13] = dose: 400.0 mg/kg/injection, schedule: Q01DX001 (ip), vehicle: saline
[14] = dose: 100.0 mg/kg/injection, schedule: Q01DX009 (ip), vehicle: saline
[15] = dose: 200.0 mg/kg/injection, schedule: Q01DX009 (ip), vehicle: saline
[16] = dose: 400.0 mg/kg/injection, schedule: Q01DX009 (ip), vehicle: saline
[17] = dose: 300.0 mg/kg/injection, schedule: Q01DX009 (ip), vehicle: Klucel (hydroxypropylcellulose) (HPC)
[18] = dose: 50.0 mg/kg/injection, schedule: Q01DX009 (ip), vehicle: Klucel (hydroxypropylcellulose) (HPC)

Measured: T/C

C/C(=C\C(=O)O)c1ccc(-c2ccccc2)cc1
inactive: dose: 100.0 mg/kg/injection, schedule: Q01DX001 (ip), vehicle: saline with Tween-80 96 % of control | dose: 200.0 mg/kg/injection, schedule: Q01DX001 (ip), vehicle: saline with Tween-80 100 % of control | dose: 400.0 mg/kg/injection, schedule: Q01DX001 (ip), vehicle: saline with Tween-80 102 % of control

CSc1ccc(NC(=O)CCCc2ccc(N(CCCl)CCCl)cc2)cc1
inactive: dose: 4.0 mg/kg/injection, schedule: Q12HX018 (ip), vehicle: other 103 % of control | dose: 6.0 mg/kg/injection, schedule: Q12HX018 (ip), vehicle: other 108 % of control | dose: 8.0 mg/kg/injection, schedule: Q12HX018 (ip), vehicle: other 115 % of control

O=C(NCSC1=NCCS1)NCSC1=NCCS1
inactive: [1] 107 % of control | [2] 97 % of control | [3] 92 % of control | [4] 114 % of control | [5] 96 % of control | [6] 97 % of control

O=C(COc1ccc(Cl)cc1Cl)NO
inactive: [1] 104 % of control | [7] 102 % of control | [3] 109 % of control | [8] 104 % of control | [5] 101 % of control | [9] 106 % of control

C[C@]12CCC(=O)C=C1CC[C@H]1[C@@H]3CCC(=O)[C@@]3(C)CC(=O)[C@@]12S
inactive: dose: 100.0 mg/kg/injection, schedule: Q01DX001 (ip), vehicle: steriod suspending solution 87 % of control | dose: 100.0 mg/kg/injection, schedule: Q04DX003 (ip), vehicle: steriod suspending solution 93 % of control | dose: 200.0 mg/kg/injection, schedule: Q01DX001 (ip), vehicle: steriod suspending solution 93 % of control | dose: 200.0 mg/kg/injection, schedule: Q04DX003 (ip), vehicle: steriod suspending solution 108 % of control | dose: 400.0 mg/kg/injection, schedule: Q01DX001 (ip), vehicle: steriod suspending solution 97 % of control | dose: 400.0 mg/kg/injection, schedule: Q04DX003 (ip), vehicle: steriod suspending solution 95 % of control

COCC/C(COC)=N\N=C(/CCOC)COC
inactive: [10] 97 % of control | [11] 103 % of control | [1] 103 % of control | [12] 106 % of control | [3] 111 % of control | [13] 109 % of control

CC1(C)CC(=O)C(C)(C)C(=O)C1
inactive: dose: 6.25 mg/kg/injection, schedule: Q01DX009 (ip), vehicle: saline with Tween-80 103 % of control | dose: 12.5 mg/kg/injection, schedule: Q01DX009 (ip), vehicle: saline with Tween-80 98 % of control | dose: 25.0 mg/kg/injection, schedule: Q04DX003 (ip), vehicle: saline with Tween-80 102 % of control

O=C(O)CCCSCCSCCCC(=O)O
inactive: [14] 97 % of control | [15] 103 % of control | [16] 86 % of control

C#CCOCC1CN(C)C(=O)O1 (stereo not given)
inactive: dose: 25.0 mg/kg/injection, schedule: Q01DX009 (ip), vehicle: saline 90 % of control | dose: 50.0 mg/kg/injection, schedule: Q01DX009 (ip), vehicle: saline 110 % of control | dose: 50.0 mg/kg/injection, schedule: Q04DX003 (ip), vehicle: saline 103 % of control | [14] 100 % of control | [2] 106 % of control | [15] 117 % of control | [4] 103 % of control | [16] 100 % of control | [6] 92 % of control

CC12CCC(O)CC1CCC1C3CC/C(=C\c4ccco4)C(=O)C3CCC12 (stereo not given)
inactive: dose: 50.0 mg/kg/injection, schedule: Q01DX001 (sc), vehicle: steriod suspending solution 105 % of control | dose: 100.0 mg/kg/injection, schedule: Q01DX001 (sc), vehicle: steriod suspending solution 89 % of control | dose: 200.0 mg/kg/injection, schedule: Q01DX001 (sc), vehicle: steriod suspending solution 91 % of control

COc1cc(NS(=O)(=O)c2ccccc2)ccc1C
inactive: [1] 92 % of control | [7] 97 % of control | [3] 91 % of control | [8] 90 % of control | [5] 91 % of control | [9] 87 % of control

CCCCCCCCCCCCCCCCCCNC(=O)Nc1ccc(C(C)C)cc1
inactive: [1] 95 % of control | [7] 89 % of control | [3] 92 % of control | [8] 89 % of control | [5] 92 % of control

CC(=O)OCC1=C(COC(C)=O)C2OC1C1OC(=O)OC21 (stereo not given)
inactive: dose: 75.0 mg/kg/injection, schedule: Q01DX009 (ip), vehicle: Klucel (hydroxypropylcellulose) (HPC) 97 % of control | [1] 105 % of control | dose: 150.0 mg/kg/injection, schedule: Q01DX009 (ip), vehicle: Klucel (hydroxypropylcellulose) (HPC) 92 % of control | [3] 97 % of control | [17] 104 % of control | [5] 101 % of control

O=C(Nc1ccc(Cl)cc1)Oc1c(Cl)cc(Cl)c(Cl)c1[N+](=O)[O-]
inactive: dose: 100.0 mg/kg/injection, schedule: Q04DX002 (ip), vehicle: gum acacia 94 % of control | dose: 200.0 mg/kg/injection, schedule: Q04DX002 (ip), vehicle: gum acacia 88 % of control

O=C(Nc1ccc(C2=NCCN2)cc1)c1cc(Cl)c(C(=O)Nc2ccc(C3=NCCN3)cc2)cc1Cl
inactive: dose: 13.4 mg/kg/injection, schedule: Q01DX Z (ip), vehicle: carboxymethylcellulose (CMC) 104 % of control | dose: 20.0 mg/kg/injection, schedule: Q01DX Z (ip), vehicle: carboxymethylcellulose (CMC) 123 % of control | dose: 45.0 mg/kg/injection, schedule: Q01DX Z (ip), vehicle: carboxymethylcellulose (CMC) 88 % of control

O=CNC1CCCCC1c1ccc(C2CCCCC2NC=O)cc1 (stereo not given)
inactive: [11] 97 % of control

Clc1cccc(C[N+]23CC[N+](Cc4cccc(Cl)c4)(CC2)C3)c1
inactive: [11] 103 % of control | [12] 111 % of control

C[N+](C)(C)CCOC(=O)Nc1ccc(C(c2ccc(NC(=O)OCC[N+](C)(C)C)cc2)c2ccc(NC(=O)OCC[N+](C)(C)C)cc2)cc1
inactive: dose: 0.25 mg/kg/injection, schedule: Q01DX009 (ip), vehicle: saline with Tween-80 98 % of control | dose: 0.5 mg/kg/injection, schedule: Q01DX009 (ip), vehicle: saline with Tween-80 100 % of control

COc1ccc(C)cc1NC(=S)NC(=O)c1cccc2ccccc12
inactive: [18] 93 % of control | [1] 87 % of control | [7] 95 % of control | [3] 88 % of control | [8] 94 % of control | [17] 104 % of control and 87 % of control

COc1cccc(/C=N\NC(=O)CCCC(=O)N/N=C/c2cccc(OC)c2)c1
inactive: [10] 87 % of control | [11] 90 % of control | [13] 103 % of control

CSC(=S)N(C)C
inactive: dose: 25.0 mg/kg/injection, schedule: Q01DX009 (ip), vehicle: Klucel (hydroxypropylcellulose) (HPC) 90 % of control | [18] 108 % of control | [1] 97 % of control and 102 % of control | [7] 100 % of control | [8] 93 % of control

CCOC(=O)C(Cc1ccc(OCc2ccccc2)c(OCc2ccccc2)c1)(NC(C)=O)C(=O)OCC
inactive: dose: 100.0 mg/kg/injection, schedule: Q04DX003 (ip), vehicle: other 102 % of control | dose: 200.0 mg/kg/injection, schedule: Q04DX003 (ip), vehicle: other 100 % of control | dose: 400.0 mg/kg/injection, schedule: Q04DX003 (ip), vehicle: other 98 % of control

CC1(C)Cc2ccccc2C1=O
inactive: dose: 100.0 mg/kg/injection, schedule: Q04DX002 (ip), vehicle: saline with Tween-80 97 % of control | dose: 200.0 mg/kg/injection, schedule: Q04DX002 (ip), vehicle: saline with Tween-80 91 % of control | dose: 400.0 mg/kg/injection, schedule: Q04DX002 (ip), vehicle: saline with Tween-80 94 % of control
